# Test results from patent US5340802A, “Peptide analog type-B CCK receptor ligands” (Abbott Laboratories, priority 1993, dated 1994).
# Experiments:
# [1] = target: T1, Type-A CCK receptors (Cavia porcellus, UniProt Q63931); test: Radioligand binding ([125I]BH-CCK-8) in guinea pig pancreatic membrane preparations; conditions: pancreatic membranes, 37° C., 150 minutes, read-out: IC50 (nM) Pancreas (Type A)
# T1 construct: Cortical and pancreatic membranes were prepared as described; from tissue; host or cells: guinea pig pancreas membranes
# T1 sequence (Q63931 1-430): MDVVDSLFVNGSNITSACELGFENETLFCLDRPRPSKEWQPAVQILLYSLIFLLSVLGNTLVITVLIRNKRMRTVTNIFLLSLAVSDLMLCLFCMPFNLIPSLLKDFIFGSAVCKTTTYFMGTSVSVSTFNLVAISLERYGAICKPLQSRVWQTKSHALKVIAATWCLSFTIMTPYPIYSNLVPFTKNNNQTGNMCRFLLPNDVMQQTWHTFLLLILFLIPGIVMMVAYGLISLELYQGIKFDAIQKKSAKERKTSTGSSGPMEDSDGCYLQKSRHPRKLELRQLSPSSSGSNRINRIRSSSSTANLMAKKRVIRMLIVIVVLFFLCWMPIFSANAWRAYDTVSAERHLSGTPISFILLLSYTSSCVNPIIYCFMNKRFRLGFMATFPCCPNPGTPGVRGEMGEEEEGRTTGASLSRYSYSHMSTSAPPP
# [2] = target: T2, Type-B CCK receptors (Cavia porcellus, UniProt H0VZC5); test: Radioligand binding ([125I]BH-CCK-8) in guinea pig cerebral cortical membrane preparations; conditions: cortical membranes, 30° C., 150 minutes, read-out: IC50 (nM) cortex (Type B)
# T2 construct: Cortical and pancreatic membranes were prepared as described; from tissue; host or cells: guinea pig cerebral cortex membranes
# T2 sequence (H0VZC5 1-426): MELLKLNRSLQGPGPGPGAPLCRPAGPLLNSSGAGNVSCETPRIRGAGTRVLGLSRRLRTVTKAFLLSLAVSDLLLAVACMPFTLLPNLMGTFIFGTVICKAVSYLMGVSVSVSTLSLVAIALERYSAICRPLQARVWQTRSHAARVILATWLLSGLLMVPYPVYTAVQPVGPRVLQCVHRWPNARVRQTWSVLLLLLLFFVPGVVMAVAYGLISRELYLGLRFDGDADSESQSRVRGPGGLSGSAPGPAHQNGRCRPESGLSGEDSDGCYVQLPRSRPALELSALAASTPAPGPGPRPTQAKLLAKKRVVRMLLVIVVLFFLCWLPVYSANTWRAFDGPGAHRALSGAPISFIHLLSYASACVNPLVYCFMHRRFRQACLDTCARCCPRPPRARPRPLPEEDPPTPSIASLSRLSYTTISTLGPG
# Procedure: CCK-8 (Asp-Tyr(SO3 H)-Met-Gly-Trp-Met-Asp-Phe-NH2), bestatin and phosphoramidon were purchased from Peptide International (Louisville, Ky.). EGTA, HEPES, BSA were purchased from Sigma Chemical Co. (St. Louis, Mo.). […] Male guinea pigs, 250 to 325 g, were obtained from Scientific Small Animal Laboratory and Farm (Arlington Heights, Ill.). Collagenase, code CLSPA, was purchased from Worthington (Frehold, N.J.).
# Cortical and pancreatic membranes were prepared as described (Lin and Miller; J. Pharmacol. Exp. Ther., 1985, 232:775-780). In brief, pancreas and cortex were removed and rinsed with ice-cold saline. Visible fat and connective tissues were removed from the pancreas. Tissues were weighed and homogenized in approximately 25 mL of ice-cold 50 mM Tris-HCl buffer, pH 7.4 at 4° C. with a Brinkman Polytron for 30 seconds, setting 7. The homogenates were centrifuged for 10 minutes at 1075×g and the pellet was discarded. The supernantants were saved and centrifuged at 38,730×g for 20 minutes. The resultant pellets were rehomogenized in 25 mL of 50 mM Tris-HCl buffer with a Teflon-glass homogenizer, 5 up and down strokes. The homogenates were centrifuged again at 38,730×g for 20 minutes. The pellets were then resuspended in 20 mM HEPES, containing 1 mM EGTA, 118 mM NaCl, 4.7 mM KCl, 5 mM MgCl2, 100 μ M bestatin, 3 μM phosphoramidon, pH 7.4 at 22° C. with a Teflon-glass homogenizer, 15 up and down strokes. The resuspension volume used for the cortex was 15 mL per g of original wet weight and 60 mL per g for pancreas.
# To 1 mL Skatron polystyrene tubes were added 25 uL of test compounds, 25 uL of [^125 I]BH-CCK8 and 200 uL of membrane suspension. The final BSA concentration was 0.1%. The cortical tissues (source of Type-B CCK receptors) were incubated at 30° C. for 150 minutes and pancreatic tissues (source of Type-A CCK receptors) were incubated at 37° C. for 150 minutes. Incubations were terminated by filtration using a Skatron Cell Harvester and SS32 microfiber filter mats. […] IC50 values were determined from the Hill analysis.
IC50 [1],IC50 [2],SMILES
> 10000 nM,16 nM,"CC(C)C[C@H](NC(=O)[C@@H]1Cc2c[nH]c3cccc(c23)CC(=O)N1)C(=O)N[C@@H](CC(=O)O)C(=O)N/C(=C\c1ccccc1)C(N)=O [Example 14, Ctp-Leu-Asp-(dehydro)Phe-NH2]"
4770 nM,18 nM,"CCC[C@@H]1CCN(C(=O)[C@@H]2Cc3c[nH]c4cccc(c34)CC(=O)N2)[C@@H]1C(=O)N[C@@H](CC(=O)O)C(=O)N[C@@H](Cc1ccccc1)C(N)=O [Example 35, Ctp-Cpp-Asp-Phe-NH2]"
1300 nM,8.4 nM,"NC(=O)[C@H](Cc1ccccc1)NC(=O)[C@H](CC(=O)O)NC(=O)[C@@H]1CSCCN1C(=O)[C@@H]1Cc2c[nH]c3cccc(c23)CC(=O)N1 [Example 42, Ctp-(1,4-thiazane-3-carbonyl)-Asp-Phe-NH2]"
11500 nM,29.9 nM,"NC(=O)[C@H](Cc1ccccc1)NC(=O)[C@H](CC(=O)O)NC(=O)[C@@H]1CCCCN1C(=O)[C@@H]1Cc2c[nH]c3cccc(c23)CC(=O)N1 [Example 43, Ctp-Pip-Asp-Phe-NH2]"
